The results in this text go back to PubChem BioAssay AID488786 (NMMLSC, 2010).

Activity calls are given as the source filed them.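 The calls were made as follows: active = compounds whose fitted off-rate of the fluorescent probe exceeds 0.05 per second; inactive = the rest.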

The target of one assay is Integrin alpha-4 (Homo sapiens) (UniProt P13612). Nature of the assay: VLA-4 ligand dissociation kinetics with analogs – U937 cells, flow cytometry, mechanism study for VLA-4 allosteric modulator project, SAR follow-up (AID 488786). The settings on record: LDV-FITC dissociation rate.
Sequence of Integrin alpha-4 (Homo sapiens) (P13612 whole entry, looked up): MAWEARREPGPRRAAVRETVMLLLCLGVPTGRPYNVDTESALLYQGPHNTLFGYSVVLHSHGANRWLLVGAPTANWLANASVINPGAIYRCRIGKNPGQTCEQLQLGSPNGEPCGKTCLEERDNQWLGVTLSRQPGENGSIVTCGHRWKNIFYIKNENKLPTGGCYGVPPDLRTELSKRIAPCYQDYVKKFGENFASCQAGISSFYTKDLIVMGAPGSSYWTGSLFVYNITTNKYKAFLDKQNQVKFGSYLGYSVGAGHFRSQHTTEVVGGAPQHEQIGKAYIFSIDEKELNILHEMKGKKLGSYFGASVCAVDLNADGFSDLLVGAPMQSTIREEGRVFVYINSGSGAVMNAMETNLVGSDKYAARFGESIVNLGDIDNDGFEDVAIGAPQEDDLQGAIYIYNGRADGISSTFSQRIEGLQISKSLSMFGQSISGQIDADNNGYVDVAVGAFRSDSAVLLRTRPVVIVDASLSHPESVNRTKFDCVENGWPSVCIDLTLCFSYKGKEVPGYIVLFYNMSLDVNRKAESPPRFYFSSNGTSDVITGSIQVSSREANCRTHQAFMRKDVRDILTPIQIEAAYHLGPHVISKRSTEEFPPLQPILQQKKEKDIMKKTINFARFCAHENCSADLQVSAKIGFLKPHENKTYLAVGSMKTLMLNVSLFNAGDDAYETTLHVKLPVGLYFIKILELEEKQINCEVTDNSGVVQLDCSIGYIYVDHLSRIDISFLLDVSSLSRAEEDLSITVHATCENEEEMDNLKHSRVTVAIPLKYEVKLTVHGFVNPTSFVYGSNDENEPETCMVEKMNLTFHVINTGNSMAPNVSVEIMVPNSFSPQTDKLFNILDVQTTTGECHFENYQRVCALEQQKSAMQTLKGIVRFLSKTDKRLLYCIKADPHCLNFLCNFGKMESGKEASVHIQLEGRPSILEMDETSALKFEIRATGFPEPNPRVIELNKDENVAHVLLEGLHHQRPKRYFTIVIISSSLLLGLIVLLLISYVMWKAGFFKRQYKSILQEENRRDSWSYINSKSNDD
In the case of `O=C1NC(=O)C2(N1)c1ccccc1-c1ccccc12`, the result was inactive.
As to `Cc1ccc(NC(=O)c2cc(N3C(=O)CCC3=O)ccc2N2CCOCC2)cc1`, the result was inactive.
`CCOCCCNC(=O)/C(C#N)=C/c1ccc(Cl)c([N+](=O)[O-])c1`: the result was inactive.
For `O=C(COc1ccc(/C=N/NC(=O)c2cc3ccccc3o2)cc1Cl)Nc1ccccc1`, the result was inactive.
Turning to `COC(=O)C1CN(C#N)N(c2ccc(Cl)cc2)C12c1ccccc1-c1ccccc12` (centres undefined), the result was inactive.
The same measure, in the same setting: the result for `Cc1ccc(NC(=O)c2cc(N3C(=O)CCC3=O)ccc2N2CCOCC2)cc1Cl` reads “inactive”.
As for `CCOC(=O)COc1ccccc1/C=C\[N+](=O)[O-]`, the result was inactive.
Take `CC(NC(=O)/C(C#N)=C/c1ccc(Cl)c([N+](=O)[O-])c1)c1ccccc1` (centres undefined): the outcome was inactive.
For `COC(=O)[C@@H]1[C@@H](C(=O)OC)C2(c3ccccc3-c3ccccc32)N(c2ccc(Cl)cc2)N1C#N`, the outcome was inactive.
Turning to `CCOC(=O)/C(=C\c1ccc(OC(F)F)cc1)C1=Nn2c(nnc2-c2ccc(Cl)cc2)SC1`, the result was inactive.
In the case of `COC(=O)C1OC2(OC1C(=O)OC)c1ccccc1-c1ccccc12` (centres undefined), the outcome was inactive.
Same read-out and setting: the same measure for `FC(F)Oc1ccc(C2=Nn3c(nnc3-c3ccccc3Cl)SC2)cc1OCC1CC1`: “inactive”.

The assay is the same for the next values; noted with them: LDV-FITC dissociation rate, at 100 µM, hits give high values.
For the compound `COc1cccc(-c2sc3ccccc3c2-c2ccc(OCCN(C)C)cc2)c1`, the dissociation rate is 0.06 s⁻¹.
`c1ccc2c(-c3ccc(OCCN4CCCCC4)cc3)c(-c3ccsc3)sc2c1`: the dissociation rate was 0.016 s⁻¹ (inactive).
On to `COc1ccc(-c2sc3ccccc3c2-c2ccc(OCCN(C)C)cc2)cc1`, for which the dissociation rate is 0.08 s⁻¹.
Same read-out and setting: the result for `COc1cccc(-c2sc3ccccc3c2-c2ccc(OCCN3CCCC3)cc2)c1` reads 0.065 s⁻¹; that for `c1ccc(-c2sc3ccccc3c2-c2ccc(OCCN3CCCC3)cc2)cc1`, 0.055 s⁻¹.
Take `c1ccc2c(-c3ccc(OCCN4CCCC4)cc3)c(-c3ccsc3)sc2c1`: the dissociation rate was 0.048 s⁻¹ (inactive).
For `CN(C)CCOc1ccc(-c2c(-c3ccccc3)sc3ccccc23)cc1`, the dissociation rate is 0.06 s⁻¹.
